PubChem BioAssay (NCI)
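In this assay, cells in 96-well plates receive the compound at five concentrations for 48 hours. Endpoints are linearly interpolated between the surrounding concentrations. TGI marks complete inhibition of growth.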

What was measured:
Test in all cases: DTP human tumour cell line panel, 48 h
MALME-3M melanoma = test system: MALME-3M melanoma
KM12 colon = test system: KM12 colon
K-562 leukemia = test system: K-562 leukemia
SNB-19 CNS = test system: SNB-19 CNS
TK-10 renal = test system: TK-10 renal
NCI/ADR-RES ovarian = test system: NCI/ADR-RES ovarian
BT-549 breast = test system: BT-549 breast
HCT-15 colon = test system: HCT-15 colon
OVCAR-4 ovarian = test system: OVCAR-4 ovarian
MCF7 breast = test system: MCF7 breast
NCI-H460 lung = test system: NCI-H460 lung
HOP-92 NSCLC = test system: HOP-92 NSCLC
OVCAR-8 ovarian = test system: OVCAR-8 ovarian
NCI-H522 lung = test system: NCI-H522 lung
UACC-257 melanoma = test system: UACC-257 melanoma
SF-268 CNS = test system: SF-268 CNS
SF-539 CNS = test system: SF-539 CNS
OVCAR-3 ovarian = test system: OVCAR-3 ovarian
MOLT-4 leukemia = test system: MOLT-4 leukemia
EKVX NSCLC = test system: EKVX NSCLC
CCRF-CEM leukemia = test system: CCRF-CEM leukemia
HOP-62 NSCLC = test system: HOP-62 NSCLC
COLO 205 colon = test system: COLO 205 colon
HCT-116 colon = test system: HCT-116 colon
SW-620 colon = test system: SW-620 colon
SK-MEL-2 melanoma = test system: SK-MEL-2 melanoma
UACC-62 melanoma = test system: UACC-62 melanoma
NCI-H23 lung = test system: NCI-H23 lung
SK-MEL-5 melanoma = test system: SK-MEL-5 melanoma
PC-3 prostate = test system: PC-3 prostate
SK-MEL-28 melanoma = test system: SK-MEL-28 melanoma
HL-60(TB) leukemia = test system: HL-60(TB) leukemia
DU-145 prostate = test system: DU-145 prostate
M14 melanoma = test system: M14 melanoma
UO-31 renal = test system: UO-31 renal
T-47D breast = test system: T-47D breast
NCI-H226 lung = test system: NCI-H226 lung
SF-295 CNS = test system: SF-295 CNS
786-0 renal = test system: 786-0 renal
OVCAR-5 ovarian = test system: OVCAR-5 ovarian
SN12C renal = test system: SN12C renal
ACHN renal = test system: ACHN renal
HS 578T breast = test system: HS 578T breast
U251 CNS = test system: U251 CNS
MDA-MB-231 breast = test system: MDA-MB-231 breast
SK-OV-3 ovarian = test system: SK-OV-3 ovarian
A549 NSCLC = test system: A549 NSCLC
A498 renal = test system: A498 renal
MDA-N = test system: MDA-N
HT29 colon = test system: HT29 colon
RPMI-8226 leukemia = test system: RPMI-8226 leukemia
CAKI-1 renal = test system: CAKI-1 renal
IGROV1 ovarian = test system: IGROV1 ovarian
SNB-75 CNS = test system: SNB-75 CNS
HCC-2998 colon = test system: HCC-2998 colon
LOX IMVI melanoma = test system: LOX IMVI melanoma
MDA-MB-435 = test system: MDA-MB-435
SR leukemia = test system: SR leukemia

`COc1ccc2oc(S(=O)(=O)N3CC(CCl)c4ccc(N)cc43)cc2c1` (stereo not drawn) was tested, and the TGI (MALME-3M melanoma) was > 100 µM, the TGI (KM12 colon) was 6.02 µM and the TGI (K-562 leukemia) was > 60.1 µM. For the same compound, the TGI (SNB-19 CNS) was > 100 µM, the TGI (TK-10 renal) was > 100 µM and the TGI (NCI/ADR-RES ovarian) was > 72 µM. For the same compound, the TGI (BT-549 breast) was > 55.8 µM, the TGI (HCT-15 colon) was > 23.9 µM and the TGI (OVCAR-4 ovarian) was > 100 µM. For the same compound, the TGI (MCF7 breast) was > 58.6 µM, the TGI (NCI-H460 lung) was 10.6 µM and the TGI (HOP-92 NSCLC) was > 64.7 µM. The TGI (OVCAR-8 ovarian) was > 28.3 µM, the TGI (NCI-H522 lung) was > 67.6 µM and the TGI (UACC-257 melanoma) was > 100 µM. For the same compound, the TGI (SF-268 CNS) was > 100 µM, the TGI (SF-539 CNS) was > 41.4 µM and the TGI (OVCAR-3 ovarian) was > 100 µM. For the same compound, the TGI (MOLT-4 leukemia) was > 54.5 µM, the TGI (EKVX NSCLC) was > 100 µM and the TGI (CCRF-CEM leukemia) was 12.7 µM. For the same compound, the TGI (HOP-62 NSCLC) was > 100 µM, the TGI (COLO 205 colon) was 14.9 µM and the TGI (HCT-116 colon) was > 8.26 µM. The TGI (SW-620 colon) was > 100 µM, the TGI (SK-MEL-2 melanoma) was > 100 µM and the TGI (UACC-62 melanoma) was > 100 µM. The TGI (NCI-H23 lung) was > 100 µM, the TGI (SK-MEL-5 melanoma) was 4.95 µM and the TGI (PC-3 prostate) was > 100 µM. The TGI (SK-MEL-28 melanoma) was > 100 µM, the TGI (HL-60(TB) leukemia) was 0.454 µM and the TGI (DU-145 prostate) was 0.515 µM. For the same compound, the TGI (M14 melanoma) was > 100 µM, the TGI (UO-31 renal) was > 100 µM and the TGI (T-47D breast) was > 100 µM. For the same compound, the TGI (NCI-H226 lung) was 1.77 µM, the TGI (SF-295 CNS) was > 100 µM and the TGI (786-0 renal) was > 10.6 µM. The TGI (OVCAR-5 ovarian) was > 100 µM, the TGI (SN12C renal) was > 100 µM and the TGI (ACHN renal) was > 94.6 µM. For the same compound, the TGI (HS 578T breast) was > 100 µM, the TGI (U251 CNS) was > 100 µM and the TGI (MDA-MB-231 breast) was > 24.9 µM. The TGI (SK-OV-3 ovarian) was > 100 µM, the TGI (A549 NSCLC) was > 100 µM and the TGI (A498 renal) was > 52.1 µM. For the same compound, the TGI (MDA-N) was > 100 µM, the TGI (HT29 colon) was 10.1 µM and the TGI (RPMI-8226 leukemia) was > 100 µM. For the same compound, the TGI (CAKI-1 renal) was > 86.3 µM, the TGI (IGROV1 ovarian) was > 34.1 µM and the TGI (SNB-75 CNS) was > 100 µM. For the same compound, the TGI (HCC-2998 colon) was 3.05 µM and the TGI (LOX IMVI melanoma) was > 53.1 µM.
In the case of `CN=C(Nc1ccc(OC)c2ccccc12)SC`, the TGI (MALME-3M melanoma) is reported as > 10 µM, the TGI (KM12 colon) is reported as > 10 µM and the TGI (K-562 leukemia) is reported as > 10 µM. The TGI (SNB-19 CNS) was > 10 µM, the TGI (TK-10 renal) was > 10 µM and the TGI (NCI/ADR-RES ovarian) was > 10 µM. The TGI (BT-549 breast) was > 10 µM, the TGI (HCT-15 colon) was > 10 µM and the TGI (OVCAR-4 ovarian) was > 10 µM. For the same compound, the TGI (MCF7 breast) was > 10 µM, the TGI (HOP-92 NSCLC) was > 10 µM and the TGI (OVCAR-8 ovarian) was > 10 µM. For the same compound, the TGI (NCI-H522 lung) was > 10 µM, the TGI (UACC-257 melanoma) was > 10 µM and the TGI (SF-268 CNS) was > 10 µM. For the same compound, the TGI (SF-539 CNS) was > 10 µM, the TGI (OVCAR-3 ovarian) was > 10 µM and the TGI (MOLT-4 leukemia) was > 10 µM. For the same compound, the TGI (CCRF-CEM leukemia) was > 10 µM, the TGI (HOP-62 NSCLC) was > 10 µM and the TGI (COLO 205 colon) was > 10 µM. The TGI (HCT-116 colon) was > 10 µM, the TGI (SW-620 colon) was > 10 µM and the TGI (UACC-62 melanoma) was > 10 µM. The TGI (NCI-H23 lung) was > 10 µM, the TGI (SK-MEL-5 melanoma) was > 10 µM and the TGI (PC-3 prostate) was > 10 µM. For the same compound, the TGI (SK-MEL-28 melanoma) was > 10 µM, the TGI (HL-60(TB) leukemia) was > 10 µM and the TGI (DU-145 prostate) was > 10 µM. The TGI (M14 melanoma) was > 10 µM, the TGI (T-47D breast) was > 10 µM and the TGI (MDA-MB-435) was > 10 µM. For the same compound, the TGI (SF-295 CNS) was > 10 µM, the TGI (786-0 renal) was > 10 µM and the TGI (OVCAR-5 ovarian) was > 10 µM. For the same compound, the TGI (SN12C renal) was > 10 µM, the TGI (ACHN renal) was > 10 µM and the TGI (HS 578T breast) was > 10 µM. The TGI (U251 CNS) was > 10 µM, the TGI (MDA-MB-231 breast) was > 10 µM and the TGI (SK-OV-3 ovarian) was > 10 µM. For the same compound, the TGI (A549 NSCLC) was > 10 µM, the TGI (SR leukemia) was > 10 µM and the TGI (MDA-N) was > 10 µM. The TGI (HT29 colon) was > 10 µM, the TGI (RPMI-8226 leukemia) was > 10 µM and the TGI (CAKI-1 renal) was > 10 µM. The TGI (IGROV1 ovarian) was > 10 µM, the TGI (SNB-75 CNS) was > 10 µM and the TGI (HCC-2998 colon) was > 10 µM. For the same compound, the TGI (LOX IMVI melanoma) was > 10 µM.
